Measured values from patent publication US20250235450A1, “COMBINATION THERAPIES COMPRISING APREMILAST AND TYK2 INHIBITORS” (Celgene Corporation, priority 2019, published 2025).
Like-named read-outs stand apart in the source and are kept apart here.

Columns and labels:
[1] = test system: anti-CD3/anti-CD28 (Th0) or anti-CD3/anti-CD28, IL-1β, IL-6 and IL-23 (Th17) stimulated whole blood; assay: Ex-vivo TruCulture tube assay: cytokine production in stimulated whole blood; assay type: cell-based, human
Experimental: Whole blood was received through the Celgene Donor program after informed consent and donor deidentification. All volunteers were healthy and were not on any medications for at least 72 hours prior to the blood draw. Blood was collected in sodium heparin tubes. The assay was started within 2 hours of the blood draw.
An ex-vivo stimulation of healthy donor human whole blood was performed under two different stimulation conditions. Condition Th0 was a stimulation with TruCulture® tubes containing anti-CD3/anti-CD28. Condition Th17 was a stimulation with TruCulture® tubes containing anti-CD3/anti-CD28 plus IL-1β, IL-6 and IL-23. Whole blood was separated into 15 milliliter conical tubes and pre-treated with DMSO, apremilast alone, BMS-986165 alone or BMS-986165 combined with apremilast. Final concentrations were 0.2% DMSO, 1 μM for apremilast alone, 1 μM, 0.1 μM, 0.01 μM and 0.001 μM BMS-986165 alone and in combination with 1 μM apremilast. Blood was mixed well and then incubated in a 37° C./5% CO2 incubator for 1 hour.
The anti-CD3/anti-CD28 (200 ng/ml and 330 ng/ml final concentrations respectively) TruCulture® tubes were thawed on the bench top for 30 minutes and then labeled. Plungers were pressed and then broken off. TruCulture® tubes were placed in a rack standing upright such that the plunger side is pointing down in the rack and the tube-cap is pointing up. While blood was incubating with compound Human recombinant IL-6, IL-1β and IL-23 were added to all Th17 tubes in the following concentrations: 120 ng IL-6, 120 ng IL-1b and 150 ng IL-23. One ml of the pre-treated whole blood was placed in each tube, using sterile pyrogen-free pipette tips. The cap was replaced and the contents of the tube were mixed by inverting 3 times. The tubes were immediately placed in a 37° C. heat block and incubated for 42 hours (tube-cap end). After the 42 hours the tubes were removed from the heat block, tops were unscrewed and 250 μl of the supernatant was removed and transferred into three 96-well polypropylene plates. Samples were immediately frozen at −80° C. The supernatants were then thawed at room temperature and tested neat for cytokine production by Luminex Multi-Plex MagPix technology (Millipore) or IL-22 by ELISA (Abcam). The manufacturer's procedures were followed accordingly.
Data processing for the cytokine analysis was done using Milliplex Analyst (Millipore), and raw data was exported to Excel template for the cytokine analysis. Data from the template was plotted using GraphPad Prism 7.0 (GraphPad Software, Inc., La Jolla, CA) and expressed as pg/ml or % of control. Statistical analysis was also performed using One Way Anova and Dunnett's Post Test.
To evaluate the combinatory effect of apremilast and BMS-986165, data from the two independent treatments were analyzed by comparing the combinatory response against the theoretical additive response of the two agents. The expected additive effect of two agents (A and B) was calculated using the fractional product method: (fu)A,B=(fu)A×(fu)B; where fu=fraction unaffected by treatment.

LPS stimulated PBMCs = assay: Viability of LPS stimulated PBMCs; assay type: cell-based, human; parameters: key: ↑: Induced; —: No change; ↓: Reduced
[2] = Th0, 0.01 μM BMS-986165 (combination: + 1 μM apremilast)
[3] = Th0, 0.1 μM BMS-986165 (combination: + 1 μM apremilast)
[4] = Th17, 0.01 μM BMS-986165 (combination: + 1 μM apremilast)
[5] = Th17, 0.1 μM BMS-986165 (combination: + 1 μM apremilast)

Compound: [2H]C([2H])([2H])NC(=O)c1nnc(NC(=O)C2CC2)cc1Nc1cccc(-c2ncn(C)n2)c1OC [BMS-986165, 6-(cyclopropanecarboxamido)-4-((2-methoxy-3-(1-methyl-1H-1,2,4-triazol-3-yl)phenyl)amino)-N-(methyl-d3)pyridazine-3-carboxamide]
- increase of GM-CSF, statistical significance ([1]; 0.1 μM BMS-986165 (Th0 and Th17) and 1 μM (Th17)): significant
- inhibition at 0.01 µM ([1]; Homo sapiens, Th0, 0.01 μM BMS-986165, read-out: inhibition of IL-22): 16%
- inhibition at 0.1 µM ([1]; Homo sapiens, Th0, 0.1 μM BMS-986165, read-out: inhibition of IL-22): 86%
- inhibition at 1 µM ([1]; Homo sapiens, Th0, 1 μM BMS-986165, read-out: inhibition of IL-22): 91%
- inhibition at 0.001 µM ([1]; Homo sapiens, Th17, 0.001 μM BMS-986165 (combination: + 1 μM apremilast), read-out: inhibition of IL-17F): 31%
- inhibition at 0.01 µM ([1]; Homo sapiens, Th17, 0.01 μM BMS-986165 (combination: + 1 μM apremilast), read-out: inhibition of IL-17F): 34%
- inhibition at 0.1 µM ([1]; Homo sapiens, Th17, 0.1 μM BMS-986165 (combination: + 1 μM apremilast), read-out: inhibition of IL-17F): 70%
- inhibition at 1 µM ([1]; Homo sapiens, Th17, 1 μM BMS-986165 (combination: + 1 μM apremilast), read-out: inhibition of IL-17F): 95%
- inhibition at 1 µM ([1]; Homo sapiens, Th17, 1 μM BMS-986165, read-out: inhibition of TNF-α): 68%
- increase in TNF-α expression ([1]; Th0, 0.001 μM BMS-986165): 21%
- increase of GM-CSF ([1]; Th0, 0.001 μM BMS-986165): 19%
- increase in TNF-α expression ([1]; Th0, 0.01 μM BMS-986165): 43%
- increase of GM-CSF ([1]; Th0, 0.01 μM BMS-986165): 36%
- CCL20 % of Control [1, 2]: 82.7 % of Control
- GM-CSF % of Control [1, 2]: 136.3 % of Control
- IFN-γ % of Control [1, 2]: 100.2 % of Control
- IL-1β % of Control [1, 2]: 113.5 % of Control
- IL-2 % of Control [1, 2]: 120.1 % of Control
- IL-4 % of Control [1, 2]: 122.8 % of Control
- IL-5 % of Control [1, 2]: 153.1 % of Control
- IL-6 % of Control [1, 2]: 149.3 % of Control
- IL-10 % of Control [1, 2]: 101.5 % of Control
- IL-13 % of Control [1, 2]: 146.9 % of Control
- IL-17A % of Control [1, 2]: 83.5 % of Control
- IL-17F % of Control [1, 2]: 68.5 % of Control
- IL-21 % of Control [1, 2]: 107.6 % of Control
- IL-22 % of Control [1, 2]: 84.1 % of Control
- IL-23 % of Control [1, 2]: 101.8 % of Control
- TNF-α % of Control [1, 2]: 143.1 % of Control
- increase in TNF-α expression ([1]; Th0, 0.1 μM BMS-986165): 61%
- increase of GM-CSF ([1]; Th0, 0.1 μM BMS-986165): 110%
- CCL20 % of Control [1, 3]: 106.4 % of Control
- GM-CSF % of Control [1, 3]: 210.5 % of Control
- IFN-γ % of Control [1, 3]: 80.9 % of Control
- IL-1β % of Control [1, 3]: 113.2 % of Control
- IL-2 % of Control [1, 3]: 187.4 % of Control
- IL-4 % of Control [1, 3]: 114.7 % of Control
- IL-5 % of Control [1, 3]: 178.6 % of Control
- IL-6 % of Control [1, 3]: 124.0 % of Control
- IL-10 % of Control [1, 3]: 33.8 % of Control
- IL-13 % of Control [1, 3]: 205.9 % of Control
- IL-17A % of Control [1, 3]: 73.0 % of Control
- IL-17F % of Control [1, 3]: 28.3 % of Control
- IL-21 % of Control [1, 3]: 94.5 % of Control
- IL-22 % of Control [1, 3]: 13.4 % of Control
- IL-23 % of Control [1, 3]: 89.9 % of Control
- TNF-α % of Control [1, 3]: 160.7 % of Control
- increase of GM-CSF ([1]; Th0, 1 μM BMS-986165): 31%
- inhibition of TNF-α cytokine expression ([1]; Th0, 1 μM BMS-986165): 66%
- IL-17A levels ([1]; Th0, 1 μM BMS-986165 (combination: + 1 μM apremilast), control 138 pg/mL): 97 pg/mL
- effect on IL-17A cytokine expression ([1]; Th0 and Th17): inhibited
- effect on IL-17F cytokine expression ([1]; Th0 and Th17): inhibited
- effect on IL-22 cytokine expression ([1]; Th0 and Th17): inhibited
- effect on IL-22 cytokine expression, statistical significance ([1]; Th0 and Th17, 0.1 μM and 1 μM BMS-986165): significantly lowered
- inhibition of TNF-α levels, statistical significance ([1]; Th0 and Th17, 1 μM BMS-986165): significant
- effect on IL-17F, statistical significance ([1]; Th0 and Th17, 0.1 and 1 μM BMS-986165): significantly reduced
- effect on IL-22 cytokine expression ([1]; Th17, 0.001 μM BMS-986165): no effect
- increase in TNF-α production ([1]; Th17, 0.01 μM BMS-986165): 19%
- increase of GM-CSF ([1]; Th17, 0.01 μM BMS-986165): 41%
- CCL20 % of Control [1, 4]: 121.7 % of Control
- GM-CSF % of Control [1, 4]: 141.1 % of Control
- IFN-γ % of Control [1, 4]: 114.2 % of Control
- IL-1β % of Control [1, 4]: 94.2 % of Control
- IL-2 % of Control [1, 4]: 128.5 % of Control
- IL-4 % of Control [1, 4]: 126.5 % of Control
- IL-5 % of Control [1, 4]: 144.3 % of Control
- IL-6 % of Control [1, 4]: 96.8 % of Control
- IL-10 % of Control [1, 4]: 78.4 % of Control
- IL-13 % of Control [1, 4]: 158.1 % of Control
- IL-17A % of Control [1, 4]: 97.7 % of Control
- IL-17F % of Control [1, 4]: 73.6 % of Control
- IL-21 % of Control [1, 4]: 91.5 % of Control
- IL-22 % of Control [1, 4]: 83.3 % of Control
- IL-23 % of Control [1, 4]: 93.8 % of Control
- TNF-α % of Control [1, 4]: 118.5 % of Control
- inhibition of IL-22 cytokine expression [1, 4]: 17%
- IL-17A levels ([1]; Th17, 0.01 μM BMS-986165 (combination: + 1 μM apremilast), control 532 pg/mL): 519 pg/mL
- increase in TNF-α levels, statistical significance ([1]; Th17, 0.1 μM BMS-986165): significant
- increase in TNF-α production ([1]; Th17, 0.1 μM BMS-986165): 77%
- increase of GM-CSF ([1]; Th17, 0.1 μM BMS-986165): 139%
- CCL20 % of Control [1, 5]: 157.8 % of Control
- GM-CSF % of Control [1, 5]: 239.3 % of Control
- IFN-γ % of Control [1, 5]: 74.7 % of Control
- IL-1β % of Control [1, 5]: 89.0 % of Control
- IL-2 % of Control [1, 5]: 250.3 % of Control
- IL-4 % of Control [1, 5]: 161.9 % of Control
- IL-5 % of Control [1, 5]: 249.9 % of Control
- IL-6 % of Control [1, 5]: 112.7 % of Control
- IL-10 % of Control [1, 5]: 46.6 % of Control
- IL-13 % of Control [1, 5]: 287.5 % of Control
- IL-17A % of Control [1, 5]: 79.2 % of Control
- IL-17F % of Control [1, 5]: 30.0 % of Control
- IL-21 % of Control [1, 5]: 86.3 % of Control
- IL-22 % of Control [1, 5]: 39.8 % of Control
- IL-23 % of Control [1, 5]: 96.3 % of Control
- TNF-α % of Control [1, 5]: 177.4 % of Control
- inhibition of IL-22 cytokine expression [1, 5]: 60%
- IL-17A levels ([1]; Th17, 0.1 μM BMS-986165 (combination: + 1 μM apremilast), control 532 pg/mL): 428 pg/mL
- increase of GM-CSF ([1]; Th17, 1 μM BMS-986165): 104%
- inhibition of IL-22 cytokine expression ([1]; Th17, 1 μM BMS-986165): 70%
- IL-17A levels ([1]; Th17, 1 μM BMS-986165 (combination: + 1 μM apremilast), control 532 pg/mL): 383 pg/mL
- inhibition of IL-17A expression ([1]; similar under Th0 and Th17, 0.001-1 μM BMS-986165): 10-25%
- effect on GM-CSF production ([1]; whole blood, Th0 and Th17): increased
- effect on TNF-α production ([1]; whole blood, Th0 and Th17): increased
- Viability (LPS stimulated PBMCs): —
